In experiment [1] the test system is K. rhizophila (formerly M. luteus) (ATCC 9341). As to the kind of experiment: Antimicrobial susceptibility, broth dilution (MIC/MBC). It is filed as cell-based, Kocuria rhizophila. Here is the method: The antibacterial effects of seven hops components against five different strains of bacteria involved in primary or secondary skin and soft tissue infections was evaluated, with broth dilution methods. […] Antimicrobial susceptibility testing was performed using a broth dilution method. Gentamicin or ampicillin was used as a control to verify the methodology. A stock solution (20 mg/ml) of the test substance (or vehicle control) was prepared in dimethyl sulfoxide. Serial dilution was done in microwell plates. Reinforced Clostridial Medium was used for P. acnes (ATCC 6919). Three hundreds […] of the test substance was added to the test tube containing P. acnes (10^5 CFU/ml) in 2.7 ml of cultures grown under anaerobic conditions. Mueller-Hinston Broth suitable for culturing S. epidermidis (ATCC 12228), K. rhizophila (formerly M. luteus) (ATCC 9341), and S. aureus (ATCC […]), and Brain Heart Infusion Broth suitable for culturing S. pyogenes (ATCC 14289) were used. A total of […] of the test substance was added to the test tube containing the other microorganisms (10^5CFU/ml) in 0.9 ml of cultures grown under controlled conditions. […] Samples from those tubes that scored positive was plated onto an agar plate and incubated under controlled conditions.

The nature of experiment [2]: SOD antioxidant assay. As to conditions: FIG. 2 radar chart. As for the experimental part: (§1) [table] […] The SOAC scores are not included in this figure; ORAC values used are the sum of lipophilic and hydrophilic results. For each assay category, scaling was made logarithmic so that the plot on the chart resembles the associated rating. […] The larger the spatial area, the higher the overall antioxidative capacity. […] Both hydrophilic and lipophilic oxygen radical absorbance capacity (ORAC) assays were carried out at Brunswick Laboratory (Wareham, Mass.) based on the modified ORACfl method reported by Ou et al. (2001 J. Agric. Food Chem. 49: 4619-4626, 2002 J. Agr. Food Chem. 50: 3122-3128). Trolox, a water-soluble vitamin E analog, was used as the calibration standard. The data are expressed as mmole of Trolox equivalents per gram (mmol TE/g). The acceptable precision of the ORAC assay is a 15% relative standard deviation. […] Hydroxyl radical ORAC (HOR-AC) is expressed as mmole caffeic acid equivalent per gram (mmol CAE/g). […] The peroxyl nitrite ORAC (NORAC) result is expressed as mmol TE/g. Alpha-tocopherol (vitamin E) was used as the calibration standard, and the singlet oxygen absorbance capacity (SOAC) result is expressed as mmole a-tocopherol equivalent (mmol VtE) per gram (Aubry et al. 1989). […] Radical-scavenging activity was measured by the change in absorbance at 517 nm with the DPPH result expressed as mmol TE/g. […] The FRAP result is expressed as mmol TE/g (Ou et al. 2002b). […]

Experiment [3] is described as follows: FRAP ferric reducing antioxidative power. Particulars: FIG. 2 radar chart. As for the experimental part: as §1

Converted amounts (≈) assume the structure as drawn.

Take `COc1cc(O)c(CC=C(C)C)c(O)c1C(=O)/C=C/c1ccc(O)cc1` [Xanthohumol (7), 3′-[3,3-dimethylallyl]-2′,4′,4-trihydroxy-6′-methoxychalcone]: the MBC entry in experiment [1] is “[10] g/mL”. Further, the minimum inhibitory concentration (MIC) in experiment [1] (1 day) worked out at 1 µg/mL (≈ 2.82 µM); in experiment [1] (Kocuria rhizophila, ATCC9341) it was 1000 µg/mL (≈ 2820 µM). Also, the “quenching activity against superoxide (SOD), rank among hop components” value in experiment [2] is recorded as “highest quenching activity”. Also, the “quenching activity against ferric ion (FRAP), rank among hop components” value in experiment [3] is on record as “highest quenching activity”.

The values are drawn from US20110207697A1, “XANTHOHUMOL COMPOSITIONS AND METHODS FOR TREATING SKIN DISEASES OR DISORDERS” (Betal, LLC, priority 2008, published 2011).
